Test system: fungi in Onychomycosis and tinea pedis
Assay: Tolnaftate solution concentration sufficient to kill the fungi
Conditions: used in a penetrating base
From the text: Tolnaftate USP (known by the trade name Tinactin ™) is a white crystalline powder that has been used as a primary agent in anti-fungal preparations. […] Other anti-fungal agents effective in fighting the fungi causing Onychomycosis and tinea pedis and suitable for use in the present invention are: Clotrimazole, Tioconazole, Nystatin, Terconazole, Butoconazole Nitrate, Unecylenic Acid, Clioquinol, Ciclopirox, Olamine, Econazole Nitrate, Triacetin, Miconazole, Flucytosine, and Ketoconazole.

**Q.** Which “solution concentration sufficient to kill the fungi” value does the source give for `Cc1cccc(N(C)C(=S)Oc2ccc3ccccc3c2)c1` [Tolnaftate] here?
**A.** Its value is 1%.

From US6391879B1, “Therapeutic anti-fungal nail preparation” (Astan, Inc., priority 1998, dated 2002)
